Results reported in patent US11273154B2, “Azole compounds as ubiquitin-specific protease USP7 inhibitors” (PROGENRA, INC., priority 2017, dated 2022).

Legend:
Assay type in all cases: cell-based
[1] = test system: Murine Tregs; assay: Treg suppression assay with CFSE labeled T effector cells (FACS); conditions: Murine Tregs pre-treated for 2 hours, washed, incubated with CFSE labeled T effector cells for 3 days; FIG. 6
Method: Murine Tregs were pre-treated with compound 1 for 2 hours, washed and incubated with carboxyfluorescein succinimidyl ester (CFSE) labeled T effector cells at varying concentrations for 3 days. T effector cell proliferation was monitored using FACS analysis. Percentage proliferation is plotted using Graphpad prism.

[2] = biological target: T1, USP7 (Homo sapiens, UniProt Q93009); assay: DUB activity of USP7 immunoprecipitated from pulse-treated Jurkat cells (Ub-EKL assay); conditions: Jurkat cells pulse treated with 10 μM-0.1 μM for 2 hours, FIG. 4A-4B
T1 construct: followed by DUB activity measurement of immunoprecipitated USP7; endogenous in cells; host or cells: Jurkat cells
T1 sequence (Q93009 whole entry): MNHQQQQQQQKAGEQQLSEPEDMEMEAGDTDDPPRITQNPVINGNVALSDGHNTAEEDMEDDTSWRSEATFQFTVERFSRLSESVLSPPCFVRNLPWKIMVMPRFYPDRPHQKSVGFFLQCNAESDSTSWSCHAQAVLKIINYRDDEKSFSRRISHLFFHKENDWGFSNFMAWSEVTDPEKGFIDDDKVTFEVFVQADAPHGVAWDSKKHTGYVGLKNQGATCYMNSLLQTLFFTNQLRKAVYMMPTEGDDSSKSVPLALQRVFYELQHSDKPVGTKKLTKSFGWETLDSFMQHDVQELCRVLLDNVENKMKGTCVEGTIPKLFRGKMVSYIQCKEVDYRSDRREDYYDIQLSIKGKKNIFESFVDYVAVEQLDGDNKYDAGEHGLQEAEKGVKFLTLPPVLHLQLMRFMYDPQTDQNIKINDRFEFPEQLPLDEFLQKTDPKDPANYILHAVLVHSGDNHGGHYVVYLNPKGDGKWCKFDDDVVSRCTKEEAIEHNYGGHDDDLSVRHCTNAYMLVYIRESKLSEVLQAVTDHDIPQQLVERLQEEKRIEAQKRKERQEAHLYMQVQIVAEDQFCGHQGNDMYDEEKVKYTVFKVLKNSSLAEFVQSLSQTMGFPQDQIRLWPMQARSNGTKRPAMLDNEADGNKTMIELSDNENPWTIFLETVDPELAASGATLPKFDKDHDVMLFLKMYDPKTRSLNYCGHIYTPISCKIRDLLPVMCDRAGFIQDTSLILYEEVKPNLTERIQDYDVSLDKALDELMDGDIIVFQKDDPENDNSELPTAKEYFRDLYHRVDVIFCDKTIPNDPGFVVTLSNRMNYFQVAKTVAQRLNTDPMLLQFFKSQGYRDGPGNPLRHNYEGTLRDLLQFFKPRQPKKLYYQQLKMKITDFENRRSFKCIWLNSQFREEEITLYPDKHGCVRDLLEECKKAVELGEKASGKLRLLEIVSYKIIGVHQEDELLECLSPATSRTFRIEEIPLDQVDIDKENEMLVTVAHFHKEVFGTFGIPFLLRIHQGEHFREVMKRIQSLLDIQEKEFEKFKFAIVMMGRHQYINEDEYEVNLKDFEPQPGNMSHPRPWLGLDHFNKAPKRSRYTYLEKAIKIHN
Method: Jurkat cells were pulse treated with doses ranging from 10 μM-0.1 μM of compound 1 or DMSO as vehicle control for 2 hours followed by DUB activity measurement of immunoprecipitated USP7 (FIG. 4A) as well as total cell lysate (FIG. 4B) using Ub-EKL assay (U.S. Pat. No. 8,680,139). A portion of the immunoprecipitated USP7 is separated on 10% SDS-PAGE and immunoblotted with anti-USP7 antibody to detect the level of USP7 protein (shown at the top of graphs in FIG. 4A).

[3] = test system: DNMT1, UHRF1 and HDM2; assay: Immunoblot of USP7 oncogenic substrate levels in Jurkat cells; conditions: 20 μg total cell lysate, FIG. 5
Method: FIG. 5 graphically illustrates a decrease in USP7 oncogenic substrates DNMT1, UHRF1 and HDM2 levels in Jurkat cells treated with the USP7i compound 1. 20 μg total cell lysates from each sample was separated on 10% SDS-PAGE and immunoblotted with antibodies against DNMT1, UHRF1, HDM2 and Actin (loading control).

## O=C(Nc1ccc2c(c1)S(=O)(=O)C=C2)c1nnc(Sc2c(Cl)cncc2Cl)s1 [compound 1, 5-((3,5-dichloropyridin-4-yl)thio)-N-(1,1-dioxido-2,3-benzo[b]thiophen-6-yl)-1,3,4-thiadiazole-2-carboxamide]
[1]
  Treg functions (T effector cell proliferation): inhibition of Treg functions
[2]
  mode of USP7 inhibition (DUB activity of immunoprecipitated USP7 after pulse treatment): irreversible inhibitors
[3]
  USP7 oncogenic substrates DNMT1, UHRF1 and HDM2 levels: decrease
